# In patent publication US6713488B2 (priority 2000, dated 2004):
# “Also recorded” adds a separate entry of the source.
# What was measured:
# [1] = target: T1, δ opioid receptor (Mus musculus, UniProt P32300); assay: 3H-naloxone equilibrium binding to DOR; conditions: 3H-naloxone 2 nM tracer, mean of triplicate ± SD
# T1 construct: expressed in transfected cells; host or cells: HEK 293
# [2] = target: T2, human MOR (Homo sapiens, UniProt P35372); format: cell-based
# T2 construct: FLAG (N); expressed in transfected cells; host or cells: HEK 293
# T2 sequence (P35372 whole entry): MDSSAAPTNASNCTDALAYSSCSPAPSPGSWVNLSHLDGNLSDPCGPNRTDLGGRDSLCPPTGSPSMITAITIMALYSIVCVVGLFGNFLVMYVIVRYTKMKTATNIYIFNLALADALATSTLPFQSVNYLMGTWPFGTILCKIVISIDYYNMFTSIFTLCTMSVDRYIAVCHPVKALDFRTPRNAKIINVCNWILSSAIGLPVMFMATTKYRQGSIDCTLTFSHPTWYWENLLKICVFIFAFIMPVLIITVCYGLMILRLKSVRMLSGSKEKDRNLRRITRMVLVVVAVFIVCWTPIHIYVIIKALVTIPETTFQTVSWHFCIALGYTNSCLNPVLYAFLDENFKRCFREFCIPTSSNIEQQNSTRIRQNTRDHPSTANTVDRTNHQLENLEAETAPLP
# [3] = target: T2, human MOR; format: biochemical
# [4] = test system: morphine-induced antinociception; assay: antagonism of morphine antinociception, 55° C. warm-water tail flick assay; format: in vivo, mice; conditions: for blockade of antinociceptive actions of morphine: 10 mg/kg i.p., morphine 20 nmol i.c.v. (A90), 55° C. tail-flick; for ID50 value against morphine-induced antinociception: morphine 20 nmol i.c.v.
# [5] = target: T3, μ opioid receptor (Homo sapiens, UniProt P35372); format: binding
# T3 construct: FLAG (N); expressed in transfected cells
# T3 sequence (P35372 whole entry): as above
# [6] = test system: acute mouse model of morphine dependence; assay: withdrawal jumping in acute mouse model of morphine dependence; format: in vivo, mice; conditions: 10 mg/kg i.p.; for reduction of jumping versus parent compound: acute morphine dependence; for withdrawal jumping: mice pretreated once with morphine 100 mg/kg s.c. -4 hr, 15 minutes observation
# [7] = test system: chronic mouse model of morphine dependence; assay: withdrawal jumping in chronic mouse model of morphine dependence (morphine pellet implantation); format: in vivo, mice; conditions: for dose needed to elicit 100 jumps/mouse / plateau of withdrawal jumping: i.p.
# [8] = test system: SH-SY5Y cells; conditions: cited from earlier work
# [9] = target: DOR (Rattus norvegicus, UniProt P33533); conditions: cited from earlier work
# Sequence of DOR (P33533 whole entry): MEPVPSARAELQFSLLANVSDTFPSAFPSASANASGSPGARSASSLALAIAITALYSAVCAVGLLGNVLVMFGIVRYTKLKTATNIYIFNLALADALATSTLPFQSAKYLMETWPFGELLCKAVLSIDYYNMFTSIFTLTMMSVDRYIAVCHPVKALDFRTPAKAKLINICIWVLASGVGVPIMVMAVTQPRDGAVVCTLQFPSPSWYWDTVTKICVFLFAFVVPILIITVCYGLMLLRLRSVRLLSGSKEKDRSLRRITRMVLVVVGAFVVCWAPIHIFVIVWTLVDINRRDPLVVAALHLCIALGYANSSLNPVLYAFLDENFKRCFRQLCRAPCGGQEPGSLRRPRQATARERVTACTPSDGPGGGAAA
# [10] = test system: drug-dependent mice; conditions: cited from earlier work
# T1 sequence (P32300 whole entry): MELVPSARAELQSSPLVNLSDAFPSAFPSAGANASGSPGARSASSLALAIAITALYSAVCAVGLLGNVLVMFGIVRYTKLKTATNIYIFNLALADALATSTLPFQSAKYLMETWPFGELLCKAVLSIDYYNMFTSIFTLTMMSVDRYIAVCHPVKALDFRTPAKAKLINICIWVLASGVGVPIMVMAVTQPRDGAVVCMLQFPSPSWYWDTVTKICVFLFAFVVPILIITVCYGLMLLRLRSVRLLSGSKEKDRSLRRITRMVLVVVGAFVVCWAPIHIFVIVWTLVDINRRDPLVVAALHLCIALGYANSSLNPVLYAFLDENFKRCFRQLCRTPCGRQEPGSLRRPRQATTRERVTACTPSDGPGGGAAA
compound,measurement,setting,value
"C=CCN1CC[C@]23c4c5ccc(O)c4O[C@H]2[C@@H](O)CC[C@@]3(O)[C@H]1C5 [6α-Naloxol, 6α-naloxol]",Ki,[1],2.1 ± 0.2 nM
same,effect on forskolin stimulated cAMP levels,[2],no effect
same,blockade of inverse-agonistic effects of β-CNA,[3],blocked
same,effect on basal 35S-GTPγS binding activity,[3],no significant effect
same,blockade of antinociceptive actions of morphine,[4],blocked
same,Ki,[5],0.63 ± 0.04 nM
same,reduction of jumping versus parent compound,[6],approximately 50%
"Oc1ccc2c3c1O[C@H]1[C@H](O)CC[C@@]4(O)[C@@H](C2)N(CC2CC2)CC[C@]314 [6α-Naltrexol, 6α-naltrexol]",Ki,[1],2.4 ± 0.1 nM
same,blockade of antinociceptive actions of morphine,[4],blocked
same,reduction of jumping versus parent compound,[6],approximately 50%
"C=CCN1CC[C@]23c4c5ccc(O)c4O[C@H]2[C@H](O)CC[C@@]3(O)[C@H]1C5 [6β-Naloxol, 6β-naloxol]",Ki,[1],2.3 ± 0.05 nM
same,effect on forskolin stimulated cAMP levels,[2],no effect
same,effect on basal 35S-GTPγS binding activity,[3],no significant effect
same,blockade of antinociceptive actions of morphine,[4],only partial blockade
same,Ki,[5],1.1 ± 0.02 nM
same,withdrawal jumping,[6],no withdrawal jumping
"COC(=O)C=CC(=O)NC1CCC2(O)C3Cc4ccc(O)c5c4C2(CCN3CC2CC2)C1O5.Cl (stereo not drawn) [β-FNA, β-funaltrexamine HCl, reference compound]",effect on basal 35S-GTPγS binding activity,[3],no significant effect
"C=CCN1CC[C@]23c4c5ccc(O)c4O[C@H]2C(=O)CC[C@@]3(O)[C@H]1C5 [Naloxone, naloxone, reference compound]",dose needed to elicit 100 jumps/mouse,[7],~0.3 mg/kg
same,plateau of withdrawal jumping,[7],approximately 200 jumps/mouse
same,effect in morphine pretreated SH-SY5Y cells,[8]; morphine pretreated,inverse agonist
same,effect in untreated SH-SY5Y cells,[8]; untreated cells,little effect
same,blockade of antinociceptive actions of morphine,[4],blocked
same,ID50 value against morphine-induced antinociception,[4]; antagonist i.c.v.,3.4 nmol
same,ID50 value against morphine-induced antinociception,[4]; antagonist i.p.,1.1 mg/kg
same,withdrawal jumping,[6],aversive effects (withdrawal jumping); also recorded: precipitated robust withdrawal jumping
"O=C(/C=C/c1ccc(Cl)cc1)N[C@@]12CCC(=O)[C@@H]3Oc4c(O)ccc5c4[C@@]31CCN(CC1CC1)[C@@H]2C5 [C-CAM, clocinnamox, reference compound]",intrinsic activity at DOR,[9],inverse agonists
same,effect on forskolin stimulated cAMP levels,[2],increased
same,effect on basal 35S-GTPγS binding activity,[3],decreased
"Oc1ccc2c3c1O[C@H]1[C@H](O)CC[C@@]4(O)[C@@H](C2)N(CC2CC2)CC[C@]314 [6β-Naltrexol, 6β-naltrexol]",dose needed to elicit 100 jumps/mouse,[7],10 mg/kg
same,Ki,[1],2.1 ± 0.01 nM
same,ID50 value against morphine-induced antinociception,[4]; antagonist i.c.v.,2.3 nmol
same,ID50 value against morphine-induced antinociception,[4]; antagonist i.p.,1.0 mg/kg
same,withdrawal jumping,[6],no withdrawal jumping
N[C@H]1CC[C@@]2(O)[C@H]3Cc4ccc(O)c5c4[C@@]2(CCN3CC2CC2)[C@H]1O5 [6α-naltrexamine],effect on basal 35S-GTPγS binding activity,[3],no significant effect
"C=C1CC[C@@]2(O)[C@H]3Cc4ccc(O)c5c4[C@@]2(CCN3CC2CC2)[C@H]1O5 [nalmefene, reference compound]",effect on basal 35S-GTPγS binding activity,[3],decreased
CC(=O)N[C@@H]1CC[C@@]2(O)[C@H]3Cc4ccc(O)c5c4[C@@]2(CCN3CC2CC2)[C@@H]1O5 [6β-naltrexamide],potency in eliciting withdrawal jumping (in words),[7],low potency
same,effect on basal 35S-GTPγS binding activity,[3],no significant effect
same,blockade of antinociceptive actions of morphine,[4],effect similar to 6β-naltrexamine
same,withdrawal jumping,[6],no withdrawal jumping
D-Phe-Cys-Tyr-D-Trp-Arg-Thr-Pen-Thr-Nh2 [CTAP],withdrawal elicited compared with naloxone,[10],significantly less withdrawal than naloxone
"O=C1/C(=C/c2ccccc2)C[C@@]2(O)[C@H]3Cc4ccc(O)c5c4[C@@]2(CCN3CC2CC2)[C@H]1O5 [BNTX, 7-benzylidene-7-dehydronaltrexone, reference compound]",intrinsic activity at DOR,[9],inverse agonists
same,effect on forskolin stimulated cAMP levels,[2],increased
same,effect on basal 35S-GTPγS binding activity,[3],decreased
"O=C1CC[C@@]2(O)[C@H]3Cc4ccc(O)c5c4[C@@]2(CCN3CC2CC2)[C@H]1O5 [Naltrexone, naltrexone, reference compound]",dose needed to elicit 100 jumps/mouse,[7],approximately 0.1 mg/kg
same,plateau of withdrawal jumping,[7],approximately 200 jumps/mouse
same,blockade of antinociceptive actions of morphine,[4],blocked
same,ID50 value against morphine-induced antinociception,[4]; antagonist i.c.v.,0.26 nmol
same,ID50 value against morphine-induced antinociception,[4]; antagonist i.p.,0.22 mg/kg
same,withdrawal jumping,[6],aversive effects (withdrawal jumping); also recorded: precipitated robust withdrawal jumping
"N[C@@H]1CC[C@@]2(O)[C@H]3Cc4ccc(O)c5c4[C@@]2(CCN3CC2CC2)[C@H]1O5 [6β-Naltrexamine, 6β-naltrexamine]",Ki,[1],2.3 ± 0.09 nM
same,blockade of antinociceptive actions of morphine,[4],only partial blockade
same,Ki,[5],0.63 ± 0.05 nM
same,withdrawal jumping,[6],no withdrawal jumping
